This is an account of results in PubChem BioAssay (NCI).

What all share (assay): NCI tumour cell line growth inhibition, 48 h
The subject of assay [1] is MOLT-4 leukemia.
Assay [2] concerns MDA-MB-435.
In assay [3] the test system is HL-60(TB) leukemia.
Assay [4] deals with SN12C renal.
Assay [5] has as its system M14 melanoma.
Assay [6] deals with RPMI-8226 leukemia.
The test system of assay [7] is OVCAR-4 ovarian.
Assay [8] deals with UACC-62 melanoma.
Assay [9] has as its system SF-268 CNS.
Assay [10] concerns CCRF-CEM leukemia.

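Growth conditions: 96-well plates. Treatment: test compound, 48 hours, 5 concentrations. Analysis: linear interpolation between bracketing concentrations; unreached endpoints set to highest concentration. Here, GI50 denotes the concentration required for 50% inhibition of growth. TGI: concentration producing complete growth inhibition.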

As to `FC(F)(F)c1cccc(Nc2nc(-c3ccccc3)nc3ncccc23)c1`, the GI50 was 3.11 µM in assay [1]; 3.77 µM in assay [2]; 2.51 µM in assay [3]; 5 µM in assay [4]; 3.79 µM in [5]; 3.09 µM in assay [6]. The GI50 in [7] is 8.05 µM; in assay [8] it was 5.84 µM; in assay [9], 6.76 µM. Besides, the TGI in assay [1] was found to be 9.04 µM; in [2] it was 22.8 µM; in assay [3], 6.93 µM; in [4] it was 64.3 µM; in [5], 16.5 µM; in assay [6], 9.16 µM. Further, the TGI amounted to 45.6 µM in assay [7], 26.2 µM in [8] and 44.3 µM in assay [9].

For `COC1/C=C/OC2(C)Oc3c(C)c(O)c4c(O)c(c(/C=N/Nc5ccc([N+](=O)[O-])cc5[N+](=O)[O-])c(O)c4c3C2=O)NC(=O)C(C)=C/C=C/C(C)C(O)C(C)C(O)C(C)C(OC(C)=O)C1C` (configuration not stated), the GI50 was 1.55 µM in assay [10]; 1.28 µM in assay [2]; 10.2 µM in [4]; 1.61 µM in [5]; 1.96 µM in assay [6]; 2.9 µM in assay [7]. Moreover, the GI50 in assay [8] was 1.37 µM; in assay [9], 1.59 µM. For the same compound, the TGI in [10] is > 50 µM; in assay [2], 3.72 µM; in assay [4] it was > 50 µM; in [5], 5.86 µM; in assay [6], 14.5 µM; in assay [7], > 50 µM. Besides, the TGI in [8] was 5.08 µM; in assay [9], 11.4 µM.

`CCN(CC)N=Nc1c(C(N)=O)n[nH]c1C`: the TGI in [10] is 54.5 µM; in assay [2] it was > 100 µM; in assay [4], > 100 µM; in assay [5], > 100 µM; in assay [6], > 100 µM; in assay [7], > 100 µM. The TGI in assay [8] and in assay [9] was > 100 µM throughout.

Consider `Nc1nc(-n2c(-c3ccccc3)nc3c(Br)cc(Br)cc3c2=O)nnc1-c1cccc(Cl)c1Cl`, for which the GI50 in assay [10] is 5.33 µM; in [1] it was 25.4 µM; in assay [2], 2.18 µM; in [4] it was 18.8 µM; in assay [5] it was 2.64 µM; in [6], 6.05 µM. Also, the GI50 in assay [7] was 51.7 µM; in assay [8] it was 7.08 µM; in assay [9] it was 20.3 µM. The TGI was > 100 µM in assay [10]; > 100 µM in assay [1]; 6.81 µM in assay [2]; > 100 µM in assay [4]; 8.42 µM in [5]; > 100 µM in assay [6]. The TGI is > 100 µM in assay [7], 25.4 µM in [8] and > 100 µM in assay [9].

Take `COC([CH2][Hg][n]1cnc2c1c(=O)n(C)c(=O)n2C)CN1C(=O)c2ccccc2S1(=O)=O` (configuration not stated): the GI50 was > 100 µM in [1]; > 100 µM in [2]; 53.4 µM in assay [3]; > 100 µM in assay [4]; > 100 µM in [5]; > 100 µM in [6]. The GI50 in assay [7], in assay [8] and in assay [9] was > 100 µM in each case. Besides, the TGI in [1], in [2], in assay [3], in assay [4], in [5] and in assay [6] was > 100 µM in each case. The TGI in assay [7], in [8] and in [9] was > 100 µM each time.

In the case of `CC(C)=CCC\C(C)=C/C=C/C(C)=C\C=C\C(C)=C/C=C/C=C(C)\C=C\C=C(C)/C=C/C=C(/C)CCC=C(C)C`, the TGI in [10], in assay [1], in assay [2], in [3], in assay [4] and in assay [5] was > 100 µM throughout. Moreover, the TGI in [7], in assay [8] and in [9] was > 100 µM each time.

Regarding `O=C1CC(NC(=O)C(F)(F)F)c2c(Br)sc(N3CCNCC3)c21` (configuration not stated), the TGI in assay [10], in assay [1], in [2], in [3], in assay [4] and in assay [5] was > 100 µM each time. Further, the TGI in [7], in [8] and in assay [9] was > 100 µM each time.

For `CCOC1Oc2ccccc2C(=O)/C1=C/Nc1ccc(C(C)=O)cc1` (configuration not stated), the GI50 in assay [10] was 19.2 µM; in assay [1], 15.8 µM; in assay [2], 24.3 µM; in [4] it was 19.4 µM; in [5], 17.4 µM; in assay [6] it was 15.9 µM. Moreover, the values for the GI50 in assay [7], in assay [8] and in [9] were 49 µM, 17.5 µM and 33.7 µM, respectively. The TGI in assay [10] was 62.2 µM; in [1] it was 53.3 µM; in assay [2] it was 61.9 µM; in assay [4], 47.8 µM; in assay [5] it was 35.9 µM; in assay [6] it was 68.3 µM. Further, the TGI in assay [7] was > 100 µM; in assay [8] it was 42 µM; in assay [9], > 100 µM.

For `CN(C)N=Nc1ccc(C(N)=O)cc1`, the TGI in assay [10], in assay [1], in [3], in assay [4], in [5] and in [6] was > 100 µM each time. Also, the TGI in assay [7], in assay [8] and in assay [9] was > 100 µM throughout.

As for `COc1ccccc1N1C(=O)C2c3[nH]c4ccccc4c3C3CCC(C(C)(C)C)CC3C2C1=O` (configuration not stated), the TGI in assay [10], in assay [1], in assay [3], in assay [4], in assay [5] and in assay [6] was > 100 µM throughout. Further, the TGI in assay [7], in assay [8] and in [9] was > 100 µM throughout.
